Data from patent publication US7189524B1, “Receptor ligands and methods of modulating receptors” (Amgen, Inc., priority 2002, dated 2007).
pEC50: −log10 of the molar value.

What was measured:
human adipocytes = experiment: Inhibition of forskolin-stimulated lipolysis of human adipocytes (glycerol release); format: cell-based; settings: Adipocyte, 0.5 μM Forskolin, 16 hours, glycerol concentration, read-out: EC50 (anti-lipolysis)
TGR183 = TGR183 (Homo sapiens, UniProt Q9BXC0); settings: concentration of 50 μM, FIG. 3
Sequence of TGR183 (Q9BXC0 whole entry): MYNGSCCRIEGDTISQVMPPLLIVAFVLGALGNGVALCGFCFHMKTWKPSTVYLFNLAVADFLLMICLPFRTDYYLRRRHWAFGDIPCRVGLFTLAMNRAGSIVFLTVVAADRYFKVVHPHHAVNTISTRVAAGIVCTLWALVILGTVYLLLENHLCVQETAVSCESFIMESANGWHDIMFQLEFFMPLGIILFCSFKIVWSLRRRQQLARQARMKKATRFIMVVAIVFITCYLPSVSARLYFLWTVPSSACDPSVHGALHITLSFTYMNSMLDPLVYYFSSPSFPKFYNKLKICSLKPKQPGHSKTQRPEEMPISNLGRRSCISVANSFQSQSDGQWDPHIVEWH
Method: (§1) Aequorin catalyses the oxidation of coelenterazine, but only in the presence of Ca^2+ ions and thus can be used as an indicator of intracellular calcium levels. Briefly, the assays were performed using the following methodology.
(§2) CHO cells were transiently transfected with expression plasmids encoding TGR4b or TGR183 together with a plasmid encoding mitochondria-targeting apoaequorin. The plasmids were co-transfected with chimeric G protein Gαqi9, which has the C-terminal 9 amino acids from the Gαq protein replaced with the C-terminal 9 amino acids form the Gαi protein. Cells were harvested 24 hr later and loaded with coelenterazine for 2 hr at 37 C. Aequorin assay was performed on MicroLumat 96 luminometer (Perkin Elmer).

TGR4b = target: T1, TGR4b (Homo sapiens, UniProt Q8TDS4); experiment: Aequorin assay for intracellular calcium, CHO cells transfected with TGR4b; format: cell-based; settings: summary of Table 1
T1 construct: expressed in transfected cells; host or cells: CHO cells, transient
T1 sequence (Q8TDS4 whole entry): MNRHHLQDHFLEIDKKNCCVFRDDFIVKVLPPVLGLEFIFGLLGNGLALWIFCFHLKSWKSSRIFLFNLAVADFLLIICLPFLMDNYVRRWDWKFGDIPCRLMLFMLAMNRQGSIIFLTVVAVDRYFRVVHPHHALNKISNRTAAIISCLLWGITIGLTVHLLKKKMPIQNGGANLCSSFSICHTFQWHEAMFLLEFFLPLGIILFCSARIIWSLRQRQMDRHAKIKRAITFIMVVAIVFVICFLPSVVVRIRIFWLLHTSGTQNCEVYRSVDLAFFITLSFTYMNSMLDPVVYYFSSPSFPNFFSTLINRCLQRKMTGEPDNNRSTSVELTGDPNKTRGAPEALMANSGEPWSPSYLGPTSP
Method: as §1, §2

Row | pEC50 (human adipocytes) | SMILES | TGR183-mediated increase in intracellular calcium (TGR183) | activity on TGR4b in words (binding and activity assays) (TGR4b)
1 | 5.55 | O=C(O)c1ccnnc1 [Pyridazine 4-carboxylic acid] | – | also active in binding and activity assays
2 | 6.82 | Cl.O=C(Cl)c1cccnc1 [nicotinoyl chloride HCl] | – | agonist and binding activity similar to that of nicotinic acid
3 | 6.11 | Cl.O=C(O)Cc1cccnc1 [3-pyridineacetic acid HCl] | – | also exhibits activity
4 | – | O=C(O)c1cncc(F)c1 [5-fluoro nicotinic acid] | – | much lower potency
5 | – | NC(=O)c1cccnc1 [Nicotinamide] | – | completely inactive
6 | 5.19 | O=C(O)c1cnccn1 [2-pyrazinecarboxylic acid] | – | also active in binding and activity assays

Row | SMILES | pEC50 (human adipocytes) | TGR183-mediated increase in intracellular calcium (TGR183) | activity on TGR4b in words (binding and activity assays) (TGR4b)
7 | O=C(O)c1cccnc1 [nicotinic acid, 3-pyridinecarboxylic acid] | 7.21 | stimulated a TGR183-mediated increase in intracellular calcium | –
8 | Cc1cnc(C(=O)O)c[n+]1[O-] | 5.22 | – | –
